Measured values as given in US11980609B2, “LPA receptor antagonists and uses thereof” (Gilead Sciences, Inc., priority 2021, dated 2024).

What follows are compounds tested against T1, human LPAR1 (Homo sapiens, UniProt Q92633) (assay: LPAR1 intracellular calcium mobilization assay (antagonist mode)). Conditions: CHO-K1 EDG2 cells expressing human LPAR1; 60 min pre-incubation with compound (0.5 nM to 10 μM), then LPA 18:2 challenge; FLIPR Tetra calcium signal.
T1 construct: host or cells: CHO-K1
T1 sequence (Q92633 whole entry): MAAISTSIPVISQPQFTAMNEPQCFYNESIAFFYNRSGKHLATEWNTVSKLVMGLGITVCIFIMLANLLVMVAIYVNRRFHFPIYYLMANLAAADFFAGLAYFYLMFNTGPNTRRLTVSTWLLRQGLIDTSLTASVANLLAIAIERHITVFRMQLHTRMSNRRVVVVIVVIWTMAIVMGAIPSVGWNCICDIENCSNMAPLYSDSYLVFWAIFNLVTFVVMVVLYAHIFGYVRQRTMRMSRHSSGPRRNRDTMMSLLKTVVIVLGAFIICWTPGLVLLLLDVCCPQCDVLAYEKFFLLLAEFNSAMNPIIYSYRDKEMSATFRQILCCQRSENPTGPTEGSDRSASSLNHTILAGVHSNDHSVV
Format: cell-based
Description: In vitro LPAR1 activity was measured in an intracellular calcium mobilization assay.
CHO-K1 EDG2 cells (DiscoverX cat #93-0644C2) expressing human LPAR1 (NM_001401.3) were seeded in a total volume of 25 μL of Dulbecco's Modification of Eagle's Medium (DMEM) with 10% Fetal Bovine Serum, 1× PenStrepGlutamine, 300 μg/ml Hygromycin, and 800 μg/ml G418 into 384-well tissue culture plate (Grenier #781091) at 15,000 cells/well and incubated at 37° C. overnight. Prior to testing, 25 μL Calcium Loading Dye Component A (FLIPR Calcium 6 Assay Kit Molecular Device #R8190) and 2.5 mM Probenecid (Invitrogen #P36400, prepared fresh) in Hank's Balanced Salt Solution (Corning #21-023-CV), 20 mM HEPES (Corning #25-060-CI), 0.1% Bovine Serum Albumin (Sigma-Aldrich #A7906-500G) was add to the cells for 60 minutes at 37° C.
Agonist dose curves of LPA 18:2 (Avanti Polar Lipids cat #857138, 0.5 nM to 10 μM) were recorded to determine the LPA 18:2 EC80 for subsequent antagonist assays. For agonist dose curves, cells were removed from the incubator 2 hours after dye loading and transferred to the FLIPR Tetra instrument (Molecular Devices, San Jose, CA). Calcium mobilization was monitored for 5 min and 10 μL 6×LPA in HBSS/20 mM Hepes/0.1% bovine serum albumin (BSA) was added to the cells 5 seconds into the assay.
To determine the LPAR1 antagonist activity of test compounds, cells were pre-incubated with test compound at a dose range of 0.5 nM to 10 μM, followed by LPA at […] concentration (100 nM). After dye loading, cells were removed from the incubator and 0.3 μL of 200× antagonist was added. Cells were incubated for 60 minutes at 37° C. Antagonist activity was measured on a FLIPR Tetra. Calcium mobilization was monitored for 3.5 minutes and 10 μL 6×EC80 LPA in HBSS, 20 mM HEPES, and 0.1% BSA was added to the cells 5 seconds into the assay. Signal amplitude (Maximum minus minimum) values were plotted against log10 of antagonist concentration using Dose Response Tool (Gilead Sciences Inc.) to determine EC50.
To assess the antagonistic potential of exemplified compounds EC50 values were determined for Compounds 1 to 55 in the LPAR1 calcium mobilization assay. The compound numbers correspond to the compound numbers in Examples 1 to 35. N/A=not available.
Compound `C[C@@H](OC(=O)Nc1c(-c2ccc(NS(C)(=O)=O)cc2)cnn1C)c1ccccc1Cl` [Compound 1, (R)-1-(2-chlorophenyl)ethyl (1-methyl-4-(4-(methylsulfonamido)phenyl)-1H-pyrazol-5-yl)carbamate] has an EC50 of 11.7 nM.
With `Cc1nc(-c2cnn(C)c2NC(=O)O[C@H](C)c2cccnc2Cl)ncc1OS(C)(=O)=O` [Compound 3, (R)-2-(5-(((1-(2-chloropyridin-3-yl)ethoxy)carbonyl)amino)-1-methyl-1H-pyrazol-4-yl)-4-methylpyrimidin-5-yl methanesulfonate] the EC50 was 39.6 nM.
Compound `Cc1nc(-c2cnn(C)c2NC(=O)O[C@H](C)c2cccnc2Cl)ncc1O` [Compound 4, (R)-1-(2-chloropyridin-3-yl)ethyl (4-(5-hydroxy-4-methylpyrimidin-2-yl)-1-methyl-1H-pyrazol-5-yl)carbamate] has an EC50 of 167 nM.
Compound `CCS(=O)(=O)Oc1cnc(-c2cnn(C)c2NC(=O)O[C@H](C)c2cc(F)cnc2Cl)nc1` [Compound 5, (R)-2-(5-(((1-(2-chloro-5-fluoropyridin-3-yl)ethoxy)carbonyl)amino)-1-methyl-1H-pyrazol-4-yl)pyrimidin-5-yl ethanesulfonate] has an EC50 of 51.5 nM.
For `C[C@@H](OC(=O)Nc1c(-c2ncc(OS(C)(=O)=O)cn2)cnn1C)c1cc(F)cnc1Cl` [Compound 6, (R)-2-(5-(((1-(2-chloro-5-fluoropyridin-3-yl)ethoxy)carbonyl)amino)-1-methyl-1H-pyrazol-4-yl)pyrimidin-5-yl methanesulfonate], the EC50 was 14.1 nM.
With `C[C@@H](OC(=O)Nc1c(-c2ncc(OS(=O)(=O)C3CC3)cn2)cnn1C)c1cccnc1F` [Compound 7, (R)-2-(5-(((1-(2-fluoropyridin-3-yl)ethoxy)carbonyl)amino)-1-methyl-1H-pyrazol-4-yl)pyrimidin-5-yl cyclopropanesulfonate] the EC50 was 1410 nM.
In the case of `C[C@@H](OC(=O)Nc1c(-c2ncc(OS(C)(=O)=O)cn2)cnn1C)c1cccnc1F` [Compound 8, (R)-2-(5-(((1-(2-fluoropyridin-3-yl)ethoxy)carbonyl)amino)-1-methyl-1H-pyrazol-4-yl)pyrimidin-5-yl methanesulfonate], the EC50 is reported as 523 nM.
With `C[C@@H](OC(=O)Nc1c(-c2ncc(OS(C)(=O)=O)cn2)cnn1C)c1cccnc1Cl` [Compound 9, (R)-2-(5-(((1-(2-chloropyridin-3-yl)ethoxy)carbonyl)amino)-1-methyl-1H-pyrazol-4-yl)pyrimidin-5-yl methanesulfonate] the EC50 was 42.9 nM.
`C[C@@H](OC(=O)Nc1c(-c2ncc(O)cc2F)cnn1C)c1cccnc1Cl` [Compound 10, (R)-1-(2-chloropyridin-3-yl)ethyl (4-(3-fluoro-5-hydroxypyridin-2-yl)-1-methyl-1H-pyrazol-5-yl)carbamate] showed an EC50 of 56.8 nM.
Compound `C[C@@H](OC(=O)Nc1c(-c2ncc(OS(C)(=O)=O)cc2F)cnn1C)c1cc(F)cnc1F` [Compound 11, (R)-6-(5-(((1-(2,5-difluoropyridin-3-yl)ethoxy)carbonyl)amino)-1-methyl-1H-pyrazol-4-yl)-5-fluoropyridin-3-yl methanesulfonate] has an EC50 of 74 nM.
Compound `C[C@@H](OC(=O)Nc1c(-c2ncc(OS(C)(=O)=O)cc2F)cnn1C)c1cccnc1Cl` [Compound 12, (R)-6-(5-(((1-(2-chloropyridin-3-yl)ethoxy)carbonyl)amino)-1-methyl-1H-pyrazol-4-yl)-5-fluoropyridin-3-yl methanesulfonate] has an EC50 of 31.1 nM.
Compound `Cc1nc(-c2cnn(C)c2NC(=O)O[C@H](C)c2cccc(F)c2)ccc1NS(C)(=O)=O` [Compound 13, (R)-1-(3-fluorophenyl)ethyl (1-methyl-4-(6-methyl-5-(methylsulfonamido)pyridin-2-yl)-1H-pyrazol-5-yl)carbamate] has an EC50 of 1250 nM.
`COC(=O)Nc1ccc(-c2cnn(C)c2NC(=O)O[C@H](C)c2cccc(F)c2)nc1C` [Compound 14, (R)-1-(3-fluorophenyl)ethyl (4-(5-((methoxycarbonyl)amino)-6-methylpyridin-2-yl)-1-methyl-1H-pyrazol-5-yl)carbamate] gave an EC50 of 4180 nM.
